Like-named read-outs stand apart in the source and are kept apart here.
Experiments:
[1] = Logistic regression classification model: probability that a drug is associated with IDILI; design: species or system human; details: for Estimated probability: probability that drug is associated with IDILI, covariates Deltadiff, EC50 VEH, EC50 TNF, Delta VEH, Cmax, optimal cutoff 0.46
Description: Classification modeling using defined covariates. In the second phase of analysis, classification models were developed using logistic regression with covariates as independent variables in the analysis and known IDILI classification as the dependent variable. A model selection process was used to determine if a covariate or set of covariates is associated with IDILI liability. Covariates were first evaluated individually to determine how well a particular covariate classified drugs according to IDILI liability, and then covariates were evaluated in combination. Combinations of covariates were selected to maximize the ability of the model to distinguish between drugs associated or not with IDILI. Specifically, covariates that describe changes in efficacy (Delta, Deltadiff, etc.) were paired with covariates that describe changes in potency (EC50, EC10, R10, etc.) to find covariate combinations that led to models that most accurately discriminated between drugs that are and are not associated with IDILI. […] The logistic regression models follow the equation: […]
where ŷi is the calculated (predicted) probability that drug i with a vector of covariates xi is associated with IDILI. The β coefficients (β0, the regression intercept; and βi, the regression slopes for model covariates, xi) were derived from the logistic regression models using 1) combinations of the covariates (xi) generated by concentration-response modeling for each of the 24 drugs evaluated in this study, and 2) the true IDILI classification for the dependent variable yi (i.e., 1 for IDILI+drugs and 0 for IDILI-drugs). […] This occurs when a covariate almost perfectly separates observations into the appropriate categories. […] When separation or quasi-complete separation occurs, use of the standard method (i.e., maximum likelihood estimation) provides biased, unreliable estimates of βi.
Receiver operating characteristic (ROC) analysis. In the third phase of the statistical approach, the classification models, generated as logistic regression models using single covariates or combinations of covariates, were evaluated by ROC analysis to determine which model and corresponding sets of covariates led to the most accurate classification of drugs according to their potential to cause IDILI. An ROC curve was created for each model by graphing the true positive rate (sensitivity; i.e., proportion of drugs correctly classified as associated with IDILI) against the false positive rate (1-specificity; i.e., proportion of drugs incorrectly classified as associated with IDILI) at various probability cutoff thresholds (k). […] An area under the curve (AUC) and confidence interval was computed for each ROC curve (where each logistic regression model has one ROC curve). […] Corresponding to each ROC curve is an optimal threshold value (k*), the threshold yielding the highest point of accuracy on the curve (i.e., the point nearest the point […] on the curve). Thus, each ROC curve has a corresponding AUC and an optimal cutoff (k*) that corresponds to the highest point of accuracy on that ROC curve.

[2] = cited from earlier work
HepG2 cells = experiment: Drug/cytokine-induced cytotoxicity (% LDH release) concentration-response in HepG2 cells; format: cell-based, human; design: key to Deltadiff: LDH release percentage points (drug/TNF Delta minus drug/VEH Delta); details: for R10 IFN: with IFN; for R10 TNF: with TNF; for R10 TNF/IFN / EC10 TNF/IFN: with TNF and IFN; for Deltadiff: Delta of drug/TNF curve minus Delta of drug/VEH curve (LDH percentage); for Emax: Homo sapiens; for TNF change: D10TNF − D10VEH; for EC10 TNF/IFN / EC10 TNF / EC10 IFN: value corresponding to 10% of Delta; for cytotoxic interaction of drug with TNF: TNF 10 ng/ml; for cytotoxicity of drug on its own (LDH release): absence of cytokines; for EC10 TNF: with TNF 10 ng/ml; for EC10 IFN: with IFN 10 ng/ml
Description: Cells were passed or used for experiments when they reached approximately 80% confluence. Cells were used at passage 6-16.
HepG2 cells were plated at a density of 4×10^4 cells per well in black-walled, 96-well, tissue culture plates and were allowed to attach overnight before being treated with compounds. Drugs were reconstituted in vehicles consisting of sterile water or DMSO (concentration less than 0.5%). Cells were treated with various concentrations of the drug or its vehicle (control) alone or in combination with the cytokines TNF (10 ng/ml) and/or IFN (10 ng/ml) or their PBS vehicle (VEH). Cytotoxicity was evaluated as lactate dehydrogenase (LDH) activity released from the cells into culture medium using the Homogeneous Membrane Integrity Assay kit from Promega (Madison, Wis.).
Concentration-response curves were generated for 24 drugs, 14 of which are associated with human IDILI and 10 of which are not. […] This was necessary because four-parameter logistic modeling used in the statistical analysis requires well defined, sigmoidal concentration-response curves. Cells were exposed to drug/cytokine combinations for 24 hours. For analysis of drug concentration-response data, concentrations of each drug were expressed as a fraction of its Cmax.
Defining covariates: four-parameter logistic model. In the first phase, variables (potential covariates) for use in the classification analysis were defined from the analysis of drug concentration-response data. Initially, a one-way analysis of variance (ANOVA) was used as an omnibus test to determine if a particular treatment (e.g. drug alone or in combination with TNF and/or IFN) caused a significant change in LDH release relative to baseline (i.e., LDH release in the absence of drug, hereafter designated “min”). The criterion for significance for the ANOVA was set at α=0.01. A 1% level of significance was used to rule out more vigorously marginal relationships between concentration and response.
where LDH(x) is the percentage of LDH released at a given concentration x; x=[drug]/Cmax; min=the % LDH release at 0 drug concentration (i.e., baseline); and max=the maximal LDH response (i.e., maximum % LDH release).
where D10 is a categorical variable related to reaching a threshold LDH response above which a drug is classified as positively associated with IDILI. D10 is defined as 0 if Delta<10% LDH release and as 1 if Delta≥10% LDH release.
The base covariate R10 represents the [drug]/Cmax value associated with an increase in 10 LDH percentage points above min for a particular treatment condition and was determined by the equation:
R10 was considered to be 0 when the Delta<10% LDH (i.e. when D10=0).
EC50 quotient, EC10 quotient and R10 quotient represent the ratio between the EC50, EC10 or R10 of the drug/cytokine concentration-response curve and the respective value for the drug/VEH concentration-response curve. In some instances, the value derived from this calculation is indeterminate (i.e. when the denominator=0). In order to incorporate the quotient values into the classification models described below, the categorical variable “Q” was used to eliminate the possibility of the quotient being indeterminate. Q is defined as 0 if Delta VEH and/or Delta cytokine is <10% LDH and 1 if both Delta VEH and Delta cytokine are ≥10% LDH. […] The same condition was applied for calculation of EC10 quotient and R10 quotient.
Deltadiff represents the difference between the Delta of the drug/cytokine concentration-response curve and the Delta of the drug/VEH curve. In other words, Deltadiff=(Delta cytokine)−(Delta VEH). FIG. 1 graphically illustrates several of the covariates defined above. […] In addition to the covariates derived from the concentration-response curves, the maximal therapeutic plasma drug concentration (Cmax) in human patients was used in some models (Table 1).

[3] = cited from earlier work; for True classification: IDILI in human patients; for IDILI liability: criteria of Xu et al. (2008)
[4] = 10 percent increase in LDH response above min, 0 when D10 = 0, drug alone (VEH)
[5] = 10 percent increase in LDH response above min, 0 when D10 = 0
[6] = HepG2, categorical, Delta threshold 10 LDH percentage points, drug alone (VEH), read-out: D10
[7] = HepG2, maximal LDH response, drug alone (VEH), 24 h, read-out: max
[8] = maximal plasma concentration after pharmacologic dosing in human patients

Row | Structure (SMILES) | R10 (HepG2 cells; [4]) | R10 IFN (HepG2 cells; [5]) | R10 TNF (HepG2 cells; [5]) | R10 TNF/IFN (HepG2 cells; [5]) | Deltadiff (HepG2 cells) | Emax (HepG2 cells; [6]) [%] | Emax (HepG2 cells; [7]) [%] | TNF change (HepG2 cells; categorical) | Estimated probability [1] | Cmax [2, 8] [µM] | True classification [3] | IDILI liability [3] | EC10 TNF/IFN (HepG2 cells; NA = no significant increase) | EC10 TNF (HepG2 cells; NA = no significant increase) | other results
1 | CC(C)(O)C(=O)Nc1ccc([N+](=O)[O-])c(C(F)(F)F)c1 [2-hydroxyflutamide] |  |  |  |  |  |  |  |  |  |  |  |  |  |  | calculated probability for association with IDILI ([1]; best-performing classification model): 0.999; Cmax ([2]; metabolite of flutamide in vivo): 5.74 µM
2 | CC(=O)Oc1ccccc1C(=O)O [Aspirin] | 0 [drug]/Cmax | 0 [drug]/Cmax | 0 [drug]/Cmax | 0 [drug]/Cmax | 0 | < 10 | 11 | 0 | 0.1445 | 47 | IDILI− | IDILI− |  |  | 
3 | CC[C@H]1OC(=O)[C@H](C)[C@@H](O[C@H]2C[C@@](C)(OC)[C@@H](O)[C@H](C)O2)[C@H](C)[C@@H](O[C@@H]2O[C@H](C)C[C@H](N(C)C)[C@H]2O)[C@](C)(O)C[C@@H](C)CN(C)[C@H](C)[C@@H](O)[C@]1(C)O [Azithromycin] | 0 [drug]/Cmax | 0 [drug]/Cmax | 0 [drug]/Cmax | 333.9 [drug]/Cmax | 0 | < 10 | 11.6 | 0 | 0.1276 | 0.5 | IDILI− | IDILI− | 59.2 [drug]/Cmax |  | synergy with cytokines to kill HepG2 cells (HepG2 cells; HepG2, 24 h, TNF and/or IFN): modestly cytotoxic in the presence of TNF/IFN
4 | Nc1c(CC(=O)O)cccc1C(=O)c1ccc(Br)cc1 [Bromfenac] | 0 [drug]/Cmax | 0 [drug]/Cmax | 40.6 [drug]/Cmax | 28.9 [drug]/Cmax | 22.6 | < 10 | 13.8 | 1 | 0.9397 | 13.5 | IDILI+ | IDILI+ | 18.9 [drug]/Cmax | 22.6 [drug]/Cmax | cytotoxic interaction of drug with TNF (HepG2 cells; HepG2, 24 h): synergized with TNF to cause cytotoxicity; effect of IFN coexposure on the drug/TNF cytotoxic interaction (HepG2 cells; HepG2, 24 h, TNF and IFN 10 ng/ml each): coexposure to IFN enhanced the cytotoxic interaction; cytotoxicity of drug on its own (LDH release) (HepG2 cells; HepG2, 24 h): caused no cytotoxicity on their own
5 | COc1ccc2cc([C@H](C)C(=O)O)ccc2c1 [Naproxen] | 60.5 [drug]/Cmax | 65.9 [drug]/Cmax | 24.3 [drug]/Cmax | 18.4 [drug]/Cmax | −9.3 | > 10 | 102 |  | 0.8589 |  | IDILI+ |  | 17.3 [drug]/Cmax | 23.6 [drug]/Cmax | EC10 (HepG2 cells; value corresponding to 10% of Delta (max-min), drug alone (VEH), NA = no significant increase): 59.8 [drug]/Cmax; EC10 IFN (HepG2 cells; NA = no significant increase): 64.8 [drug]/Cmax
6 | CS(=O)(=O)Nc1ccc([N+](=O)[O-])cc1Oc1ccccc1 [Nimesulide] |  | 0 [drug]/Cmax | 32.0 [drug]/Cmax | 33.5 [drug]/Cmax | 92.3 |  | 14.6 | 1 | 1 | 21.1 |  |  | 33.2 [drug]/Cmax | 31.8 [drug]/Cmax | R10 (HepG2 cells): 0 [drug]/Cmax; cytotoxic interaction of drug with TNF (HepG2 cells; HepG2, 24 h): synergized with TNF to cause cytotoxicity; cytotoxicity of drug on its own (LDH release) (HepG2 cells; HepG2, 24 h): caused no cytotoxicity on their own; Emax (HepG2 cells; HepG2, read-out: D10): < 10%
7 | CCCC(CCC)C(=O)O [Valproic Acid] |  | 51.3 [drug]/Cmax | 23.3 [drug]/Cmax |  | 37.1 |  | 44.5 | 0 |  | 175 | IDILI+ |  |  |  | EC10 IFN (HepG2 cells; NA = no significant increase): 23.4 [drug]/Cmax
